The source of these data is paper PMC11362529, “Exploring the neuroprotective potential of Nrf2-pathway activators against annonacin toxicity” (Scientific Reports, 2024).

What all share (assay type): cell-based, human
For assay [1], the system named is LUHMES cells. The experiment in a line: Mitochondrial superoxide (MitoSOX / calcein AM). The settings on record: 48 h. The protocol: As before, cells seeded on PLO/FN-coated 24-well microplates were treated for 48 h with 20 nM of annonacin and the selected concentrations of Nrf2-pathway activators, in glucose-reduced medium. After this period, the medium was removed, and the cells were washed once with warm HBSS before being simultaneously incubated with 0.5 µM of MitoSOX™ red (Thermo Fisher Scientific) and 1 µM of calcein AM for 30 min at 37 °C. Next, the cells were again washed with HBSS and fresh HBSS was added to maintain cell viability during live-image acquisition on a fluorescence microscope Leica-DFC9000GTC (Leica). The cells were kept under controlled environmental conditions, and similar image acquisition parameters were used for all images, as explained before. We acquired ten to fifteen images per condition, from different view fields across triplicates, with a 200 × magnification (20 × objective, 10 × intermediate magnification). Quantification of MitoSOX and calcein AM FI was performed using the ImageJ software. Briefly, TIFF exported images were submitted to background subtraction using the rolling ball method with a radius of 50 pixels. Channel-specific thresholds were applied to all images to define the ROI, and the FI were measured as integrated density and reported as arbitrary units (a. u.). The MitoSOX FI was normalized to cell viability estimated by calcein AM FI, to obtain a MitoSOX FI/calcein FI ratio. The average ratio of the different view fields per experimental condition was taken and reported as fold change relative to the control (DMSO-treated) condition.

Assay [2] relates to Nrf2-knockdown LUHMES cells. The experiment in a line: Cell viability in Nrf2-knockdown cells exposed to annonacin (calcein). To be noted: Nrf2 siRNA, compound + 20 nM annonacin, 48 h. The protocol: The calcein AM green dye (Thermo Fisher Scientific) was diluted in DMSO to obtain a 1 mM stock solution. The stock solution was further diluted in HBSS (Hanks' balanced salt solution), immediately before incubation, to achieve a final working concentration of 1 μM in the well. The medium was removed, the cells were washed once with warm HBSS, and 200 µl of calcein working solution was added to each well. For background correction, 200 µl of calcein working solution was added to a well without cells (background control). After 30 min of incubation at 37 °C, the calcein solution was removed and the cells were washed once with HBSS. Cells were lysed in a 200 µl volume of 1% Triton™ X-100 in PBS (phosphate buffered saline) and the lysate transferred to a 96‐well black plate for the readout. The fluorescence signal was measured on a FLUOstar® Omega plate reader (BMG LabTech, Ortenberg, Germany) at λ Ex/Em = 485/530 nm and data was analyzed with the MARS data analysis software (BMG LabTech). For background correction, we subtracted the background control signal from the measured values of all experimental conditions. Data were expressed as percentage of viability relative to the control (DMSO-treated) condition.
LUHMES cells seeded on PLO/FN coated 48-well microplates were left to differentiate for 5 days, before being transfected with 25 nM of NRF2-targeting (gene ID 4780) or negative control siRNA (siTOOLs Biotech, Planegg, Germany), in Opti-MEM + GlutaMax medium (Thermo Fisher Scientific) with 0.4% of lipofectamine RNAiMax. After 24 h, the medium was removed and replaced with glucose-reduced medium for the pharmacological treatments, similar as described in the previous sections. Cell viability was determined by calcein assay, after 48 h of treatment, as explained before.

Assay [3] has as its system LUHMES cells. The experiment in a line: Mitochondrial activity by MTT reduction. The settings on record: 24 h; for MTT reduction: protective concentration of compound + 20 nM annonacin. The protocol:
Mitochondrial activity was estimated by the reduction of MTT (3-(4,5-dimethylthiazol-2-yl)-2,5-diphenyltetrazolium, Sigma-Aldrich). Briefly, LUHMES cells were seeded on PLO/FN-coated 48-well microplates, in triplicates. After a 24 h treatment with 20 nM of annonacin and the protective concentrations of Nrf2-pathway activators in glucose-reduced medium, cells were incubated with 0.5 mg/ml of MTT dissolved in PBS, at 37 °C for 30 min. After that, the medium was removed and the plate was frozen at -80 °C for 1 h, for cell lysing. Next, the plate was thawed and the MTT crystals were completely dissolved in 250 µl of DMSO with vigorous shaking. The absorbance was measured on a FLUOstar® Omega plate reader at λ = 590 nm, using λ = 630 nm absorbance as a background correction. The obtained results were analyzed with the MARS data analysis software (BMG LabTech). After background subtraction, the data were expressed as a percentage of MTT reduction relative to the control (DMSO-treated) condition. Determination of cellular ATP levels was done by using the ViaLight™ plus kit (Lonza, Basel, Switzerland), following the manufacturer’s instructions. Cells were seeded on PLO/FN-coated 48-well microplates and the pharmacological treatments were done similarly as to the assessment of the MTT reduction. On the next day, the medium was removed and cells were washed once with warm HBSS and rested in 210 µl HBSS. The plate was left to reach RT before adding 70 µl cell lysis reagent to each well, provided by the kit. […] The plate was incubated in the dark for 10 min at RT before the luminescence signal was measured on a FLUOstar® Omega plate reader. The obtained results were analyzed with the MARS data analysis software (BMG LabTech) and expressed as RLUs. For background correction, the RLUs detected for the background control (i.e., 10 µl of ATP monitoring reagent plus combined with 10 µl of cell lysis reagent) were subtracted from the measured RLUs values of all testing conditions.
For orientation: Tetrazolium dyes change colour on reduction, which living cells bring about.

[4] abbreviates: protective concentration of compound + 20 nM annonacin.

On to `Cn1c(Nc2nc3ccc(C(F)(F)F)cc3s2)nc2cc(C(=O)NCCOCCO)ccc21` [HPP-D], for which, in assay [1] (setting [4]), the MitoSOX/calcein ratio result was “to control levels”. In assay [2], the “protective effects against annonacin toxicity in Nrf2-knockdown cells” value (shortened to “protective effects”) is on record as “slightly attenuated in Nrf2-knockdown cells”.
Regarding `CCCCCCCCCCCC[C@@H](O)[C@H]1CC[C@H]([C@H](O)CCCC[C@H](O)CCCCC[C@@H](O)CC2=CC(C)OC2=O)O1` (some centres unmarked) [annonacin], in assay [1] (20 nM annonacin alone), the MitoSOX fluorescence intensity entry is “no major changes in MitoSOX fluorescence intensity” and the MitoSOX/calcein ratio result is listed as “significantly increased”. The “decrease of reduced-MTT compared with healthy control cells” value in assay [3] (20 nM annonacin alone) turned out to be 20%.
Regarding `O=C1[C@H](CC[C@H](O)c2ccc(F)cc2)[C@@H](c2ccc(O)cc2)N1c1ccc(F)cc1` [ezetimibe], the MitoSOX/calcein ratio entry in assay [1] (setting [4]) was “to control levels”. Further, the MTT reduction entry in assay [3] is “further decreased the amount of MTT reduction”. In addition, the “protective effects” value in assay [2] is “did not observe an abolishment of the neuroprotective effects”.
Take `C=CC(C)(C)c1cc(/C=C/C(=O)c2ccc(O)cc2)c(OC)cc1O` [licochalcone A]: in assay [1] (setting [4]), the MitoSOX/calcein ratio result was “to levels below control”. In addition, in assay [3], the MTT reduction entry is “further decreased the amount of MTT reduction”. Also, in assay [2], the “protective effects” value is given as “slightly attenuated in Nrf2-knockdown cells”.
